Assay results published in publication PMC3445516 (PLoS ONE, 2012).
Read-outs that look alike come from different tables or passages of the source.

How the values were obtained:
Assay in all cases: Ambit kinase profiling, competition binding
ACVRL1 = target: T1, ACVRL1 (Homo sapiens, UniProt P37023)
T1 construct: purchased Ambit Biosciences (KINOMEscan)
Description: (§1) Also included in the kinase profile are four isoforms of PKC (δ, ε, η, θ) and eight isoforms of CAMKs (CAMKIα, δ, γ; CAMKIIα, β, δ, γ; CAMK4).
(§2) The global kinase profiling experiment was performed by Ambit Biosciences.

CAMKIIα = target: T2, CAMKIIα (Homo sapiens, UniProt Q9UQM7); conditions: for competition: CAMKIIα, 10 µM
T2 construct: purchased Ambit Biosciences (KINOMEscan)
T2 sequence (Q9UQM7 whole entry): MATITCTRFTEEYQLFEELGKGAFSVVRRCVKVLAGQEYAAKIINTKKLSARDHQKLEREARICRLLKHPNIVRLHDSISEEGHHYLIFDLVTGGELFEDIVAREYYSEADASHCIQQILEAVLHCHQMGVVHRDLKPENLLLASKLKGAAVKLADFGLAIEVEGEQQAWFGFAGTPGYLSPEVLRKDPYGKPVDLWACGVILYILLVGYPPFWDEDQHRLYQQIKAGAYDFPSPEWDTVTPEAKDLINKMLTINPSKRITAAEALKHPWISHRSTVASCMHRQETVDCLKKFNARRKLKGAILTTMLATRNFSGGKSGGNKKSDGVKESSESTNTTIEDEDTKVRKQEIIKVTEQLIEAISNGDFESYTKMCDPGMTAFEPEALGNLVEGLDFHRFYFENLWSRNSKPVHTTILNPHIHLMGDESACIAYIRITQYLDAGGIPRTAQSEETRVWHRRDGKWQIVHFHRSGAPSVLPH
Description: as §1, §2

CLK4 = target: T3, CLK4 (Homo sapiens, UniProt Q9HAZ1)
T3 construct: purchased Ambit Biosciences (KINOMEscan)
T3 sequence (Q9HAZ1 whole entry): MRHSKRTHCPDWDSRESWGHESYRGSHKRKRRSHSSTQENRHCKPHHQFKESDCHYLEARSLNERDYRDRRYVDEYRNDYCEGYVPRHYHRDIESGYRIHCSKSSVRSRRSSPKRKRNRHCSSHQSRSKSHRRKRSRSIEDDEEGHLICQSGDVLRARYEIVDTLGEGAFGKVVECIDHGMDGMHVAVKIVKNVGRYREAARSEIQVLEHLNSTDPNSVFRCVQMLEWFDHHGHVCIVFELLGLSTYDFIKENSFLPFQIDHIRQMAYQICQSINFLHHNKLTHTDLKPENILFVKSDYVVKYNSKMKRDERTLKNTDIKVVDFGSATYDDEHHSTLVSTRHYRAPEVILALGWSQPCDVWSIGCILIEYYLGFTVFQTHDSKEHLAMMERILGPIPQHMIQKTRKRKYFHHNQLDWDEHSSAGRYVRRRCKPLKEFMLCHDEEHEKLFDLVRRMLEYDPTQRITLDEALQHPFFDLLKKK
Description: as §1, §2

DYRK1B = target: T4, DYRK1B (Homo sapiens, UniProt Q9Y463)
T4 construct: purchased Ambit Biosciences (KINOMEscan)
Description: as §1, §2

EGFR(L861Q) = target: T5, EGFR(L861Q) (Homo sapiens, UniProt P00533, L861Q); conditions: for % Competition: 10 µM
T5 construct: purchased Ambit Biosciences (KINOMEscan)
Description: as §1, §2

ERK1 = target: T6, ERK1 (Homo sapiens, UniProt P27361)
T6 construct: purchased Ambit Biosciences (KINOMEscan)
T6 sequence (P27361 whole entry): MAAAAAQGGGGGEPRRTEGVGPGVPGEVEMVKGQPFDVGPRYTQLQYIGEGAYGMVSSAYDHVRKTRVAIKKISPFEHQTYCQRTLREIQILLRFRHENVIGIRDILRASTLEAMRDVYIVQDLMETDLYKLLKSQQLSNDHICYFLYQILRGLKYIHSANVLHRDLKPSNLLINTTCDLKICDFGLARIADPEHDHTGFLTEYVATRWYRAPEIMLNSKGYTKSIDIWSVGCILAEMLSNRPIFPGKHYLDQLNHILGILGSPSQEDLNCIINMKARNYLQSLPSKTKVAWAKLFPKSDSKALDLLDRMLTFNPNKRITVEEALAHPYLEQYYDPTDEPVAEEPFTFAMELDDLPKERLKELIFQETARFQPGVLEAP
Description: as §1, §2

HPK1 = target: T7, HPK1 (Homo sapiens, UniProt Q92918)
T7 construct: purchased Ambit Biosciences (KINOMEscan)
T7 sequence (Q92918 whole entry): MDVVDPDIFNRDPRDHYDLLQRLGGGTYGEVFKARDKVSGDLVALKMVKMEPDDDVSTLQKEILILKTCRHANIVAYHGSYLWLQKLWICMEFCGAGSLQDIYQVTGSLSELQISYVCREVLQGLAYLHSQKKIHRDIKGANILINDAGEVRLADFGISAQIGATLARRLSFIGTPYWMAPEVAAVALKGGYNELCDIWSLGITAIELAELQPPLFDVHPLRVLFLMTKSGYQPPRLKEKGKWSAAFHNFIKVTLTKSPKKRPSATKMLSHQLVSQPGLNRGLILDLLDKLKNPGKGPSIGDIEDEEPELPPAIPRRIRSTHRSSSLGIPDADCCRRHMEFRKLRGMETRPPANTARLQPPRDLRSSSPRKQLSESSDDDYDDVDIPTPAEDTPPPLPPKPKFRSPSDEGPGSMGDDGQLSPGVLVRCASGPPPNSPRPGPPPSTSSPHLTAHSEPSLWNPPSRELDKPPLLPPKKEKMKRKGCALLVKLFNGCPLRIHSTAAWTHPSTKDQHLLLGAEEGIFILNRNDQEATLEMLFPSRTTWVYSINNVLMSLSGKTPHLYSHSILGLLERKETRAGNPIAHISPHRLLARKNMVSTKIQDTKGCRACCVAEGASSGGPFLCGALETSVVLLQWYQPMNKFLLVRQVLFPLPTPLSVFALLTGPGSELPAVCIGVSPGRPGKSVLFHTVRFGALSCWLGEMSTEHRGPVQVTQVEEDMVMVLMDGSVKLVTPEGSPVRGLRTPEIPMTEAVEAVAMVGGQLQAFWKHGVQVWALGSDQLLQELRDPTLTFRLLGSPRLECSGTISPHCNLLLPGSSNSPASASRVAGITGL
Description: as §1, §2

PRKD1 = target: T8, PRKD1 (Homo sapiens, UniProt Q15139)
T8 construct: purchased Ambit Biosciences (KINOMEscan)
T8 sequence (Q15139 1-912): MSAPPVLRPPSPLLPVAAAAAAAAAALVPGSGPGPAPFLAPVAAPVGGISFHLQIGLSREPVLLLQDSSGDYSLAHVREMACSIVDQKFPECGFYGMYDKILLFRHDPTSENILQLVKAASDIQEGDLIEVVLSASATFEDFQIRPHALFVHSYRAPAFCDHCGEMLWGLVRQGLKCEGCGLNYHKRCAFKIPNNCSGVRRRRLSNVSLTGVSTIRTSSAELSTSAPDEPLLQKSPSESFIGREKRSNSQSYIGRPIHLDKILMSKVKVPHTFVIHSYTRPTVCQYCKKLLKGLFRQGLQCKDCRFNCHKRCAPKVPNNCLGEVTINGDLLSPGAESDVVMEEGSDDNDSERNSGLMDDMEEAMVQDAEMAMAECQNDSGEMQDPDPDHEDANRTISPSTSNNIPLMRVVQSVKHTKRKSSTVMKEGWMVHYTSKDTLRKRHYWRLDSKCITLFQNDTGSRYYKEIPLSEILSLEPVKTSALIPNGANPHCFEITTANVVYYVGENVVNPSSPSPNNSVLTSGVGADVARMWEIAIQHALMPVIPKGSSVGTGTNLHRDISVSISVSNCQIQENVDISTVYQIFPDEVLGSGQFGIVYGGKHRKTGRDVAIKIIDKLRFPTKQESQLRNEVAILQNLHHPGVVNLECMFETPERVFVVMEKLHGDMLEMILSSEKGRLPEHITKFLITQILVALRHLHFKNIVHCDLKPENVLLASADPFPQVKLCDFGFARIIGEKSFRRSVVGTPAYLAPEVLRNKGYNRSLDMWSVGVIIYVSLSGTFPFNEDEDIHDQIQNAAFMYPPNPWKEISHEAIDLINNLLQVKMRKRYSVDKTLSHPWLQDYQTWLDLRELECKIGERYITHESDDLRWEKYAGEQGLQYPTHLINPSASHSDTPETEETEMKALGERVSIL
Description: as §1, §2

RET = target: T9, RET (Homo sapiens, UniProt P07949)
T9 construct: purchased Ambit Biosciences (KINOMEscan)
T9 sequence (P07949 29-1114): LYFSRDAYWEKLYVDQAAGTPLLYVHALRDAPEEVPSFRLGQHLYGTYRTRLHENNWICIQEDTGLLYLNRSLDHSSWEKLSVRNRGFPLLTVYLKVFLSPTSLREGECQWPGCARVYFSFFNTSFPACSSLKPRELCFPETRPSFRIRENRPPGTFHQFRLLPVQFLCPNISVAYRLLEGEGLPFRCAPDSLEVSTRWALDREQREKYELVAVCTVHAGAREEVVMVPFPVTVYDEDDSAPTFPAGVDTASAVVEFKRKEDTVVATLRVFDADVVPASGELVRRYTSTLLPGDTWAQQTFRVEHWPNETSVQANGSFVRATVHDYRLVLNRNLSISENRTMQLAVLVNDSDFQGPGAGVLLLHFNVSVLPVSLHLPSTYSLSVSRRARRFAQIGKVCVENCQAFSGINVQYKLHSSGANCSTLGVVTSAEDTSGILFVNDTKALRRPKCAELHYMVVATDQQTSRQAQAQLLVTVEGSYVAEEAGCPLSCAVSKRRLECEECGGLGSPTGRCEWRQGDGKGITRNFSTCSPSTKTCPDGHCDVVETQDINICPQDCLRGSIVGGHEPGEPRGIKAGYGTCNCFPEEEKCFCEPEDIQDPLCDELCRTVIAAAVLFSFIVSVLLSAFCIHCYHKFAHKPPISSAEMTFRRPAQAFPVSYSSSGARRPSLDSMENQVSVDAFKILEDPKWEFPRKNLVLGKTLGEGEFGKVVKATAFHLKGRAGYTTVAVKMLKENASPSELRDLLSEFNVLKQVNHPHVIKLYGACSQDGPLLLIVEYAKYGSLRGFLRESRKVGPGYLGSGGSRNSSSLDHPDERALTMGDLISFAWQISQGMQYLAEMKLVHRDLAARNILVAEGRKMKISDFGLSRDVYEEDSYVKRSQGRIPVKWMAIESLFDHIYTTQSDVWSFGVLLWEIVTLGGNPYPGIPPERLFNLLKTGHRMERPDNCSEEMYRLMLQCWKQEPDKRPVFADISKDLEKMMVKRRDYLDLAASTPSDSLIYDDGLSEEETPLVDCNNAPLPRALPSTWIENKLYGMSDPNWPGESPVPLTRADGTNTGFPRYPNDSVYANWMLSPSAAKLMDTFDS
Description: as §1, §2

RET(M918T) = target: T10, RET(M918T) (Homo sapiens, UniProt P07949, M918T)
T10 construct: purchased Ambit Biosciences (KINOMEscan)
T10 sequence (P07949 29-1114 M918T): as the sequence (P07949 29-1114) above, with M890T counted along it
Description: as §1, §2

RIPK2 = target: T11, RIPK2 (Homo sapiens, UniProt O43353)
T11 construct: purchased Ambit Biosciences (KINOMEscan)
T11 sequence (O43353 whole entry): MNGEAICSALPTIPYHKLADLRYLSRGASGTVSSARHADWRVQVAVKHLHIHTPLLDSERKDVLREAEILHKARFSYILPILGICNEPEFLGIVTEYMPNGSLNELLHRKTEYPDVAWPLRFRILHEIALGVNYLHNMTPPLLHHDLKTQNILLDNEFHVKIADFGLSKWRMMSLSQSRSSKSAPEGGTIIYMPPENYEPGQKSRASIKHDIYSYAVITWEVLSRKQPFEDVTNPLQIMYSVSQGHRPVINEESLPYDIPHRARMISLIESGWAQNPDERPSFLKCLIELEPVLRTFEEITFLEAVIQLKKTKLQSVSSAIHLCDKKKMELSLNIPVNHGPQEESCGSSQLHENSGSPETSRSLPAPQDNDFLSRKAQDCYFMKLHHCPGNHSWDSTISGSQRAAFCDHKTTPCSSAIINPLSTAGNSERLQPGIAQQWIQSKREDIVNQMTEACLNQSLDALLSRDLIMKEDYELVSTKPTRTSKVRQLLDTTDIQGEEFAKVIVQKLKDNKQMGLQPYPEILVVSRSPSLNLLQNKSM
Description: as §1, §2

RIPK4 = target: T12, RIPK4 (Homo sapiens, UniProt P57078)
T12 construct: purchased Ambit Biosciences (KINOMEscan)
T12 sequence (P57078 1-832): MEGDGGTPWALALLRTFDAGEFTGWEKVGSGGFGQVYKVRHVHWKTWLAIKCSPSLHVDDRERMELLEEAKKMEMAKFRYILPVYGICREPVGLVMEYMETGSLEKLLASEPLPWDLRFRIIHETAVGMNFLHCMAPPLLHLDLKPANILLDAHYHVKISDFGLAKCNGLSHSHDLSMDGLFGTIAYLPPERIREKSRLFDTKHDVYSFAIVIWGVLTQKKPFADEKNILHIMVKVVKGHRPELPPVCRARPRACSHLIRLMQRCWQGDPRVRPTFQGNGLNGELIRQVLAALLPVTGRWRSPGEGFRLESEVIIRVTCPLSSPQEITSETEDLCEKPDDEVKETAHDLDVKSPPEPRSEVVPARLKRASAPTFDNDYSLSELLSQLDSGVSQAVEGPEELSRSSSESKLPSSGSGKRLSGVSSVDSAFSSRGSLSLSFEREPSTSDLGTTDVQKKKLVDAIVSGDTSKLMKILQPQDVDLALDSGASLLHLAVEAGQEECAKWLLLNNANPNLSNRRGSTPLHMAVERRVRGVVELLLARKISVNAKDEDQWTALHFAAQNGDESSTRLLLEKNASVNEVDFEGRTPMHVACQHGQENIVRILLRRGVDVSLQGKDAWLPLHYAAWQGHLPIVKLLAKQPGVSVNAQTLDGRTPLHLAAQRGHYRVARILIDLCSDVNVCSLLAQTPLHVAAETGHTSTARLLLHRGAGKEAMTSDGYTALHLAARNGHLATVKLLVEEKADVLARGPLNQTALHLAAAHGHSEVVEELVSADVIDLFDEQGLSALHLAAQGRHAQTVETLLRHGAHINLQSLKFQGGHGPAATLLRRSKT
Description: as §1, §2

[1] = target: T13, TYK2 (JH2 domain-pseudokinase) (Homo sapiens, UniProt P29597); conditions: for % Competition: TYK2 (JH2 domain-pseudokinase), 10 µM
T13 construct: TYK2 (JH2 domain-pseudokinase); purchased Ambit Biosciences (KINOMEscan)
T13 sequence (P29597 556-888 limits assumed): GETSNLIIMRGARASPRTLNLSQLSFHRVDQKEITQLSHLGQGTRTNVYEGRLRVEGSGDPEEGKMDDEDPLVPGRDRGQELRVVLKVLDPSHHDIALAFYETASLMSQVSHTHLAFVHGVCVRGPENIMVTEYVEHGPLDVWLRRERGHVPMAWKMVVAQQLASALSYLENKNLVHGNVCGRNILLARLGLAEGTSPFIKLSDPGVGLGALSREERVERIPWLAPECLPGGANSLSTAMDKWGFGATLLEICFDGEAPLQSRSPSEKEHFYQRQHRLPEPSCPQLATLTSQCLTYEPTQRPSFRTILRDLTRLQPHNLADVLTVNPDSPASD
Description: as §1, §2

YES = target: T14, YES (Homo sapiens, UniProt P07947)
T14 construct: purchased Ambit Biosciences (KINOMEscan)
Description: as §1, §2

T1 sequence (P37023 22-503): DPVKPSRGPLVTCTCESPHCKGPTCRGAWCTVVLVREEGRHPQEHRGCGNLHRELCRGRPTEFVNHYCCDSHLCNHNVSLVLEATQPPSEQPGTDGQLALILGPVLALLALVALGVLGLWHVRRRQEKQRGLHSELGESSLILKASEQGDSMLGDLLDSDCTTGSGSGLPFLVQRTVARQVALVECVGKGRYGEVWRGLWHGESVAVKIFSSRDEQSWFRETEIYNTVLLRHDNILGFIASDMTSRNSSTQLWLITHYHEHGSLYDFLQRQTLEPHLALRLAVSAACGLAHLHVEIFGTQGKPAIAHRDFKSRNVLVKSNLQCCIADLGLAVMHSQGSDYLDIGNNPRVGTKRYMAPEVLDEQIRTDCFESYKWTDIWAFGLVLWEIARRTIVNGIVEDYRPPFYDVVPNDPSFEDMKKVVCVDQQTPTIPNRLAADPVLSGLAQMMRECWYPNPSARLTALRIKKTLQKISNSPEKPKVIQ

Which inhibition at 10 µM (ACVRL1; ACVRL1, 10 µM, read-out: % Competition) does the source give for `Fc1ccc(-c2c(-c3ccncc3)[nH]c3nccnc23)cc1` [Compound 122] here?
The inhibition at 10 µM was 83%.

What about the competition (CAMKIIα) of the same molecule?
Its competition is < 50%.

What about the inhibition at 10 µM (CLK4; CLK4, 10 µM, read-out: % Competition) of the same molecule?
Its inhibition at 10 µM is 88%.

What about the inhibition at 10 µM (DYRK1B; DYRK1B, 10 µM, read-out: % Competition) of the same molecule?
The inhibition at 10 µM was 79%.

What about the “% Competition” value (EGFR(L861Q)) of the same molecule?
The value was 97%.

What about the inhibition at 10 µM (ERK1; ERK1, 10 µM, read-out: % Competition) of the same molecule?
The inhibition at 10 µM was 80%.

And the inhibition at 10 µM (HPK1; HPK1, 10 µM, read-out: % Competition)?
Its inhibition at 10 µM is 67%.

What about the inhibition at 10 µM (PRKD1; PRKD1 (PKD1), 10 µM, read-out: % Competition) of the same molecule?
The inhibition at 10 µM was 92%.

And the inhibition at 10 µM (RET; RET, 10 µM, read-out: % Competition)?
Its inhibition at 10 µM is 68%.

What about the inhibition at 10 µM (RET(M918T); RET(M918T), 10 µM, read-out: % Competition) of the same molecule?
The inhibition at 10 µM was 68%.

What about the inhibition at 10 µM (RIPK2; RIPK2, 10 µM, read-out: % Competition) of the same molecule?
Its inhibition at 10 µM is 97%.

What about the inhibition at 10 µM (RIPK4; RIPK4, 10 µM, read-out: % Competition) of the same molecule?
The inhibition at 10 µM was 76%.

And the “% Competition” value [1]?
The value was 78%.

What about the inhibition at 10 µM (YES; YES, 10 µM, read-out: % Competition) of the same molecule?
The inhibition at 10 µM was 73%.

Which results are given for `CC(O)CNc1cc(-c2[nH]c3cccnc3c2-c2ccc(F)cc2)ccn1` (stereo not drawn) [Compound 140]?
inhibition at 10 µM (ACVRL1; read-out: % Competition): < 50%; competition (CAMKIIα): < 50%; inhibition at 10 µM (CLK4; read-out: % Competition): < 50%; inhibition at 10 µM (DYRK1B; read-out: % Competition): < 50%; % Competition (EGFR(L861Q)): 87%; inhibition at 10 µM (ERK1; read-out: % Competition): < 50%; inhibition at 10 µM (HPK1; read-out: % Competition): < 50%; inhibition at 10 µM (PRKD1; read-out: % Competition): 83%; inhibition at 10 µM (RET; read-out: % Competition): < 50%; inhibition at 10 µM (RET(M918T); read-out: % Competition): < 50%; inhibition at 10 µM (RIPK2; read-out: % Competition): 94%; inhibition at 10 µM (RIPK4; read-out: % Competition): < 50%; % Competition [1]: 92%; inhibition at 10 µM (YES; read-out: % Competition): < 50%

With `Fc1ccc(-c2c(-c3ccncc3)[nH]c3nccnc23)cc1` [RO1155697-000-005] as the molecule, how does the inhibition at 10 µM (ACVRL1; ACVRL1, compound concentration 10 uM, read-out: Percent Competition) read?
The inhibition at 10 µM was 83%.

What about the inhibition at 10 µM (CAMKIIα; CAMK2A, compound concentration 10 uM, read-out: Percent Competition) of the same molecule?
Its inhibition at 10 µM is < 50%.

What about the inhibition at 10 µM (CLK4; CLK4, compound concentration 10 uM, read-out: Percent Competition) of the same molecule?
Its inhibition at 10 µM is 88%.

And the inhibition at 10 µM (DYRK1B; DYRK1B, compound concentration 10 uM, read-out: Percent Competition)?
The inhibition at 10 µM was 79%.

And the “Percent Competition” value (EGFR(L861Q); compound concentration 10 uM)?
The value was 97%.

What about the inhibition at 10 µM (ERK1; ERK1, compound concentration 10 uM, read-out: Percent Competition) of the same molecule?
The inhibition at 10 µM was 80%.

What about the inhibition at 10 µM (HPK1; HPK1, compound concentration 10 uM, read-out: Percent Competition) of the same molecule?
Its inhibition at 10 µM is 67%.

What about the inhibition at 10 µM (PRKD1; PRKD1, compound concentration 10 uM, read-out: Percent Competition) of the same molecule?
Its inhibition at 10 µM is 92%.

What about the inhibition at 10 µM (RET; RET, compound concentration 10 uM, read-out: Percent Competition) of the same molecule?
Its inhibition at 10 µM is 68%.

What about the inhibition at 10 µM (RET(M918T); RET(M918T), compound concentration 10 uM, read-out: Percent Competition) of the same molecule?
The inhibition at 10 µM was 68%.

And the inhibition at 10 µM (RIPK2; RIPK2, compound concentration 10 uM, read-out: Percent Competition)?
Its inhibition at 10 µM is 97%.

What about the inhibition at 10 µM (RIPK4; RIPK4, compound concentration 10 uM, read-out: Percent Competition) of the same molecule?
Its inhibition at 10 µM is 76%.

What about the “Percent Competition” value ([1]; TYK2(JH2domain-pseudokinase), compound concentration 10 uM) of the same molecule?
The value was 78%.

What about the inhibition at 10 µM (YES; YES, compound concentration 10 uM, read-out: Percent Competition) of the same molecule?
Its inhibition at 10 µM is 73%.
